# Measured values as given in patent US20090088432A1, “Thiazolinones and Oxazolinones and their Use as Ptp1b Inhibitors” (priority 2005, published 2009).
# Counter-ions that a name gives are not always drawn.
# Biological target: T1, Recombinant human Protein-tyrosine phosphatase1B (PTP1B) (Homo sapiens, UniProt P18031)
# T1 construct: Recombinant human Protein-tyrosine phosphatase1B (PTP1B) (amino acid 1-322 Biomol, USA); purchased Biomol, USA
# T1 sequence (P18031 1-322): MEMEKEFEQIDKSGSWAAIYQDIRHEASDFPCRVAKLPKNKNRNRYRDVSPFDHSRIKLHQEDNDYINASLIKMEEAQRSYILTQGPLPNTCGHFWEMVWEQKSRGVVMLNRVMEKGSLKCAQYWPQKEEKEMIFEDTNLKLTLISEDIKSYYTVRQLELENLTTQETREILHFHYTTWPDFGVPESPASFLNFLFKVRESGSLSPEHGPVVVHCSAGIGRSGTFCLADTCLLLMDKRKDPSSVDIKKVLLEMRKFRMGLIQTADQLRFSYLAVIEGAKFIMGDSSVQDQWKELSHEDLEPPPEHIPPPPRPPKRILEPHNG
# Assay: PTP1B enzyme inhibition assay (pNpp substrate)
# Format: biochemical
# Settings: inhibition of recombinant human PTP1B, pNpp 5 mM, 30 mins at 25° C; inhibitor concentration not given
# Experimental: Protein tyrosine phosphatase 1B (PTP1B) is an intracellular enzyme which functions by removing the phosphate groups from phosphorylated tyrosine residues of cellular proteins. PTP1B has been implicated as a negative regulator of insulin action and therefore is of therapeutic interest. The ability of the test compounds to inhibit the activity of PTP1B is determined using an enzyme inhibition assay.
# The assay is performed using two independent substrates of PTP1B namely, p-nitrophenyl phosphate (pNpp) and the phosphorylated Epidermal growth factor receptor peptide (EGFR).
# In the assay performed with pNpp, the action of PTP1B results in the release of p-nitrophenol, which is yellow in colour and can be measured at 410 nm. In the case of the assay using EGFR, action of PTP1B results in the release of free phosphate group. This is trapped using a reagent containing ammonium molybdate and malachite green resulting in a colored complex whose absorbance can be measured at 620 nm.
# 1× Assay buffer 50 mM HEPES (pH 7.4) • 1 mM EDTA • 1 mM DTT • 0.05% Igepal® CA-630
# Dilute recombinant Human PTP1B 1:150 in 1× Assay buffer for 10× stock,
# Prepare 10× stock of pNpp (50 mM) in 1× Assay buffer
# Prepare 100× stock in 100% DMSO, dilute 1:10 with 1× Assay buffer to get 10× stock in 10% DMSO.
# PTP1B inhibition assay was performed using recombinant human PTP1B. PTP1B (0.016 μg/well) was incubated in a buffer containing 50 mM HEPES, 1 mM DTT, 1 mM EDTA and 0.05% Igepal® CA-630 with or without inhibitor (10× stock, final DMSO concentration is 1%) for 30 mins at 25° C. This was followed by addition of p-Nitrophenyl phosphate (pNpp) substrate (5 mM). The final volume of the reaction mixture is 50 μL and experiment was done in 96 well half area plate. The incubation was continued for 30 mins at 25° C. The conversion of pNpp to p-Nitrophenol (pNp) was measured at 410 nm in Spectramaxplus Spectrophotometer (Molecular Devices, USA).
row,Activity Score,Compound
1,(+) (+ = 10-20% inhibition),"CNS(=O)(=O)Cc1ccc(NC2=NC(=O)C(=Cc3cn(CC(=O)O)c4ccccc34)S2)cc1 [Compound 44, {3-[2-(4-Methylsulfamoylmethyl-phenylamino)-4-oxo-4H-thiazol-5-ylidenemethyl]-indol-1-yl}-acetic acid]"
2,(++) (++ = 20-50% inhibition),"N#Cc1ccccc1-c1ccc(C=C2SC(Nc3ccc(CC(=O)O)cc3)=NC2=O)cc1 [Compound 17, {4-[5-(2′-Cyano-biphenyl-4-ylmethylene)-4-oxo-4,5-dihydro-thiazol-2-ylamino]-phenyl}-acetic acid]"
3,(+) (+ = 10-20% inhibition),"O=C1N=C(Nc2ccc(Cc3nnn[nH]3)cc2)SC1=Cc1cc2ccccc2cc1OCc1ccccc1 [Compound 33, 5-(3-Benzyloxy-naphthalen-2-ylmethylene)-2-[4-(1H-tetrazol-5-ylmethyl)-phenylamino]-thiazol-4-one]"
4,(+++) (+++ = >50% inhibition),"[4-(N′-{4-Oxo-5-[4-(1H-tetrazol-5-yl)-benzylidene]-4,5-dihydro-thiazol-2-yl}-hydrazino)-phenyl]-acetic acid [Compound 34]"
5,(+++) (+++ = >50% inhibition),"{3-[5-(1-Carbamoylmethyl-1H-indol-3-ylmethylene)-4-oxo-4,5-dihydro-thiazol-2-ylamino]-phenyl}-acetic acid [Compound 23]"
6,(++) (++ = 20-50% inhibition),"O=C(O)Cc1csc(NC2=NC(=O)C(=Cc3ccc(-c4ccccc4)cc3)S2)n1 [Compound 130, [2-(5-Biphenyl-4-ylmethylene-4-oxo-4,5-dihydro-thiazol-2-ylamino)-thiazol-4-yl]-acetic acid]"
7,(+++) (+++ = >50% inhibition),"O=C(O)Cc1ccc(NC2=NC(=O)C(=Cc3ccc(-c4nnn[nH]4)cc3)S2)cc1 [Compound 19, (4-{4-Oxo-5-[4-(1H-tetrazol-5-yl)-benzylidene]-4,5-dihydro-thiazol-2-ylamino}-phenyl)-acetic acid]"
8,(+) (+ = 10-20% inhibition),"CS(=O)(=O)NC(=O)Cc1ccc(NC2=NC(=O)C(=Cc3ccc(-c4ccccc4)cc3)S2)cc1.[Na] [Compound 225, N-{2-[4-(5-Biphenyl-4-ylmethylene-4-oxo-4,5-dihydro-thiazol-2-ylamino)-phenyl]-acetyl}-methanesulfonamide, sodium salt]"
9,(+++) (+++ = >50% inhibition),"O=C(O)Cn1ccc2cc(NC3=NC(=O)C(=Cc4cc5ccccc5cc4OCc4ccccc4)S3)ccc21 [Compound 47, {5-[5-(3-Benzyloxy-naphthalen-2-ylmethylene)-4-oxo-4,5-dihydro-thiazol-2-ylamino]-indol-1-yl}-acetic acid]"

# Further lines, the compound ahead of its results:
row,Compound,Activity Score
1,"COc1cc(C=C2SC(Nc3ccc(CC(=O)O)cc3)=NC2=O)cc(OC)c1OC [Compound 59, {4-[4-Oxo-5-(3,4,5-trimethoxy-benzylidene)-4,5-dihydro-thiazol-2-ylamino]-phenyl}-acetic acid]",(+++) (+++ = >50% inhibition)
2,"CC(C(=O)O)c1ccc(NC2=NC(=O)C(=Cc3ccc(-c4ccccc4)cc3)S2)cc1 (stereo not shown) [Compound 54, 2-[4-(5-Biphenyl-4-ylmethylene-4-oxo-4,5-dihydro-thiazol-2-ylamino)-phenyl]-propionic acid]",(+++) (+++ = >50% inhibition)
3,"CC(C)(C)c1cc(C=C2SC(Nc3ccc(CC(=O)O)cc3)=NC2=O)cc(C(C)(C)C)c1O [Compound 37, {4-[5-(3,5-Di-tert-butyl-4-hydroxy-benzylidene)-4-oxo-4,5-dihydro-thiazol-2-ylamino]-phenyl}-acetic acid]",(+++) (+++ = >50% inhibition)
4,"Cc1ccc(S(=O)(=O)NC(=O)Cc2ccc(NC3=NC(=O)C(=Cc4ccc(-c5ccc(F)cc5)cc4)S3)cc2)cc1 [Compound 215, N-(2-{4-[5-(4′-Fluoro-biphenyl-4-ylmethylene)-4-oxo-4,5-dihydro-thiazol-2-ylamino]-phenyl}-acetyl)-4-methyl-benzenesulfonamide sodium salt]",(+++) (+++ = >50% inhibition)
5,"Cc1ccc(S(=O)(=O)NC(=O)Cc2ccc(NC3=NC(=O)C(=Cc4ccc(N5CCN(c6ccccn6)CC5)cc4)S3)cc2)cc1.[Na] [Compound 173, 4-Methyl-N-[2-(4-{4-oxo-5-[4-(4-pyridin-2-yl-piperazin-1-yl)-benzylidene]-4,5-dihydro-thiazol-2-ylamino}-phenyl)-acetyl]-benzenesulfonamide sodium salt]",(+++) (+++ = >50% inhibition)
6,"O=C(Cc1ccc(NC2=NC(=O)C(=Cc3ccc(-n4cccn4)cc3)S2)cc1)NS(=O)(=O)c1ccccc1 [Compound 103, N-(2-{4-[4-Oxo-5-(4-pyrazol-1-yl-benzylidene)-4,5-dihydro-thiazol-2-ylamino]-phenyl}-acetyl)-benzenesulfonamide]",(+) (+ = 10-20% inhibition)
7,"Cc1ccc(S(=O)(=O)NC(=O)Cc2ccc(NC3=NC(=O)C(=Cc4cc5ccccc5cc4OCc4ccccc4)S3)cc2)cc1 [Compound 26, N-(2-{4-[5-(3-Benzyloxy-naphthalen-2-ylmethylene)-4-oxo-4,5-dihydro-thiazol-2-ylamino]-phenyl}-acetyl)-4-methyl-benzenesulfonamide]",(+) (+ = 10-20% inhibition)
8,"O=C(O)Cc1ccc(NC2=NC(=O)C(=Cc3cccc(-n4cccn4)c3)S2)cc1 [Compound 91, {4-[4-Oxo-5-(3-pyrazol-1-yl-benzylidene)-4,5-dihydro-thiazol-2-ylamino]-phenyl}-acetic acid]",(++) (++ = 20-50% inhibition)
9,"O=C(O)CC(C(=O)O)c1ccc(NC2=NC(=O)C(=Cc3ccc(-c4ccccc4)cc3)S2)cc1 (stereo not shown) [Compound 55, 2-[4-(5-Biphenyl-4-ylmethylene-4-oxo-4,5-dihydro-thiazol-2-ylamino)-phenyl]-succinic acid]",(++) (++ = 20-50% inhibition)
10,"CC(C)(C)OC(=O)Cn1cc(C=C2SC(Nc3ccc(CC(=O)O)cc3)=NC2=O)c2ccccc21 [Compound 11, {4-[5-(1-tert-Butoxycarbonylmethyl-1H-indol-3-ylmethylene)-4-oxo-4,5-dihydro-thiazol-2-ylamino]-phenyl}-acetic acid]",(++) (++ = 20-50% inhibition)
11,"O=C(O)Cc1ccc(NC2=NC(=O)C(=Cc3ccc(-c4ccccc4)cc3)S2)cc1 [Compound 94, [4-(5-Biplenyl-4-ylmethylene-4-oxo-4,5-dihydro-thiazol-2-ylamino)-phenyl]-acetic acid]",(+) (+ = 10-20% inhibition)
12,"O=C(O)Cc1ccc(NC2=NC(=O)C(=Cc3ccccc3)S2)cc1 [Compound 5, [4-(5-Benzylidene-4-oxo-4,5-dihydro-thiazol-2-ylamino)-phenyl]-acetic acid]",(+) (+ = 10-20% inhibition)
13,"O=C(Cc1ccc(NC2=NC(=O)C(=Cc3ccc(-c4ccccc4)cc3)S2)cc1)NS(=O)(=O)c1ccc(F)cc1.[Na] [Compound 224, N-{2-[4-(5-Biphenyl-4-ylmethylene-4-oxo-4,5-dihydro-thiazol-2-ylamino)-phenyl]-acetyl}-4-fluoro-benzenesulfonamide, sodium salt]",(++) (++ = 20-50% inhibition)
14,"O=C([O-])CCc1ccc(NC2=NC(=O)C(=Cc3ccc4ccccc4c3)S2)cc1.[Na+] [Compound 89, 3-[4-(5-Naphthalen-2-ylmethylene-4-oxo-4,5-dihydro-thiazol-2-ylamino)-phenyl]-sodium propionate]",(+) (+ = 10-20% inhibition)
15,"4-[5-(6-Ethoxy-naphthalen-2-ylmethylene)-4-oxo-4,5-dihydro-thiazol-2-ylamino]-phenyl}-sodium acetate [Compound 143]",(+++) (+++ = >50% inhibition)
16,"O=C(O)Cc1ccc(NC2=NC(=O)C(=Cc3cc4ccccc4cc3OCc3ccc(F)cc3)S2)cc1 [Compound 85, (4-{5-[3-(4-Fluoro-benzyloxy)-naphthalen-2-ylmethylene]-4-oxo-4,5-dihydro-thiazol-2-ylamino}-phenyl)-acetic acid]",(+++) (+++ = >50% inhibition)
